{"source": "ChEMBL document CHEMBL5678811", "about": "(Invest New Drugs, 2014)", "key": {"[1]": {"test_system": "Calu-6", "assay": "Antitumor activity against human Calu-6 cells xenografted in CD1 nu/nu mouse assessed as tumor growth inhibition at 60 mg/kg, […] q3d administered via gavage for 7 days measured twice per week during compound dosing", "type": "functional, organism-based", "settings": "time 7.0 day"}, "[2]": {"test_system": "Calu-6", "assay": "Antitumor activity against human Calu-6 cells xenografted in CD1 nu/nu mouse assessed as tumor growth inhibition at 150 mg/kg, […] q3d administered via gavage for 4 days measured twice per week during compound dosing", "type": "functional, organism-based", "settings": "time 4.0 day"}}, "note": "Calls of active or inactive are those of the source. No cut-off for these calls is given here."}
{"smiles": "Nc1ccn([C@@H]2O[C@H](CO)[C@@H](O)C2(F)F)c(=O)n1", "values": [{"measurement": "TGI", "setting": "[1]", "result": "Active"}, {"measurement": "TGI", "setting": "[2]", "result": "Active"}]}
